In patent US20230312561A1, “SOLID FORMS OF (Z)-METHYL 3-(((4-(N-METHYL-2-(4-METHYLPIPERAZIN-1-YL)ACETAMIDO)PHENYL)AMINO)(PHENYL)METHYLENE)-2-OXO-2,3-DIHYDRO-1H-PYRROLO[2,3-B]PYRIDINE-6-CARBOXYLATE AND SALTS THEREOF” (Angion Biomedica Corp., priority 2020, published 2023):

How the values were obtained:
[1] = Biorelevant solubility (water, saline, FaSSIF, FeSSIF, FaSSGF, 37° C.); type: physicochemical
Description: Due to pH drift in a previous study (see Example 12.1), in order to obtain a more accurate pH solubility evaluation, a study was designed using water, saline, FaSSIF (fasted state simulated intestinal fluid, pH 6.5), […] (fed state simulated intestinal fluid, pH 5.0), and FaSSGF (fasted state simulated gastric fluid, pH 1.6), which would ensure ending pH and buffer pH remained the same. […] The study design was successful, and all initial pH values were maintained. […] The pH was measured constantly during the addition up to the point of movement in the buffer, at which point additions were halted and the solutions or suspensions matured over 48 hours at 37° C. Samples were taken for solubility evaluation at the specified time-points and clarified through 0.45 micron filters and pH measured on the settled suspensions. Solubility was determined vs a 0.5 mg/mL reference. 35 mg portions were added to FaSSGF and FeSSIF maintaining solutions.

[2] = Organic solubility (thermodynamic, 25° C., heating cycle to 75° C.); type: physicochemical; conditions: for Solubility at 25° C.: 20 volumes; for XRPD after heat/cool cycle: cycle up to 75° C.
Description: Compound 1 Hydrochloride Form A (Type 1 Lot) (ca. 50 mg) was equilibrated in a range of organic solvents in order to collect thermodynamic values for solubility. Solvents were charged in 500 μL aliquots (ca. 10 volumes) to the Compound 1 Hydrochloride Form A (Type 1 Lot) dispensed as a powder (ca. 50 mg) in 16 mm diameter glass reaction tubes until dissolution was achieved or up to 1000 μL (ca. 20 volumes) total volume was charged, with observations noted during dosing. The samples were equilibrated at 25° C. for a minimum of 24 hours with stirrer bead agitation.
Samples which remained as suspensions and contained enough solids were split into two equal portions, with one portion isolated by filtration and the resulting damp solids profiled by XRPD. These solids were then dried in vacuo at 45° C. for ca. 16 hours before further profiling. The filtrates from the solvent suspensions were isolated, diluted by 1 in 50 using acetonitrile/water (1:1), and the Compound 1 content determined by HPLC against a single point standard.
The remaining portion of each suspension was subjected to a heating cycle up to 75° C. with equilibration at 10° C. temperature intervals for a minimum of 30 minutes, before allowing to cool naturally to 40° C., followed by equilibration for ca. 16 hours before continuing to cool naturally (approximately 10° C./hr) to 25° C.

COC(=O)c1ccc2c(c1)NC(=O)/C2=C(\Nc1ccc(N(C)C(=O)CN2CCN(C)CC2)cc1)c1ccccc1.Cl [Compound 1 Hydrochloride Form A (Type 1 Lot)]
solubility in saline [1]: > 50000 µg/mL
solubility in water [1]: > 50000 µg/mL
Final pH ([1]; 0.9% NaCl): 3.03
Solubility (mg/mL) T = 1 h ([1]; 0.9% NaCl): >50 mg/mL
Solubility (mg/mL) T = 3 h ([1]; 0.9% NaCl): >50 mg/mL
Solubility (mg/mL) T = 6 h ([1]; 0.9% NaCl): >50 mg/mL
Solubility (mg/mL) T = 24 h ([1]; 0.9% NaCl): >50 mg/mL
Final pH ([1]; FaSSGF (starting pH 1.6)): 1.65
Solubility (mg/mL) T = 1 h ([1]; FaSSGF (starting pH 1.6)): >35 mg/mL
Solubility (mg/mL) T = 3 h ([1]; FaSSGF (starting pH 1.6)): >35 mg/mL
Solubility (mg/mL) T = 6 h ([1]; FaSSGF (starting pH 1.6)): >35 mg/mL
Solubility (mg/mL) T = 24 h ([1]; FaSSGF (starting pH 1.6)): >35 mg/mL
Final pH ([1]; FaSSIF (starting pH 6.5)): 6.13
Solubility (mg/mL) T = 1 h ([1]; FaSSIF (starting pH 6.5)): 2.41 mg/mL
Solubility (mg/mL) T = 3 h ([1]; FaSSIF (starting pH 6.5)): 3.38 mg/mL
Solubility (mg/mL) T = 6 h ([1]; FaSSIF (starting pH 6.5)): 3.74 mg/mL
Solubility (mg/mL) T = 24 h ([1]; FaSSIF (starting pH 6.5)): 5.12 mg/mL
Final pH ([1]; FeSSIF (starting pH 5.0)): 4.98
Solubility (mg/mL) T = 1 h ([1]; FeSSIF (starting pH 5.0)): >35 mg/mL
Solubility (mg/mL) T = 3 h ([1]; FeSSIF (starting pH 5.0)): >35 mg/mL
Solubility (mg/mL) T = 6 h ([1]; FeSSIF (starting pH 5.0)): >35 mg/mL
Solubility (mg/mL) T = 24 h ([1]; FeSSIF (starting pH 5.0)): >35 mg/mL
Final pH ([1]; Water): 3.04
Solubility (mg/mL) T = 1 h ([1]; Water): >50 mg/mL
Solubility (mg/mL) T = 3 h ([1]; Water): >50 mg/mL
Solubility (mg/mL) T = 6 h ([1]; Water): >50 mg/mL
Solubility (mg/mL) T = 24 h ([1]; Water): >50 mg/mL
solubility in FeSSIF ([1]; pH 5.0): > 50000 µg/mL
Observation after heat/cool cycle [2]: Suspension
XRPD after equilibration at 25° C. ([2]; 2-Butanone): Form C
Solubility at 25° C. ([2]; 2-Butanone): 4.9 µg/mL
XRPD after heat/cool cycle ([2]; 2-Butanone): Form C
XRPD after equilibration at 25° C. ([2]; 2-Propanol): Form C
Solubility at 25° C. ([2]; 2-Propanol): 60 µg/mL
XRPD after heat/cool cycle ([2]; 2-Propanol): Form C
XRPD after equilibration at 25° C. ([2]; Acetone): Form C
Solubility at 25° C. ([2]; Acetone): 14.4 µg/mL
XRPD after heat/cool cycle ([2]; Acetone): Form C
XRPD after equilibration at 25° C. ([2]; Acetonitrile): Form C
Solubility at 25° C. ([2]; Acetonitrile): 170 µg/mL
XRPD after heat/cool cycle ([2]; Acetonitrile): Form C
Solubility at 25° C. ([2]; Anisole): 8.1 µg/mL
XRPD after heat/cool cycle ([2]; Anisole): Unassigned form
XRPD after equilibration at 25° C. ([2]; DMSO): Form A
Solubility at 25° C. ([2]; DMSO): 10820 µg/mL
XRPD after heat/cool cycle ([2]; DMSO): Form A
Solubility at 25° C. ([2]; Dichloromethane): 1750 µg/mL
XRPD after heat/cool cycle ([2]; Dichloromethane): Form C
XRPD after equilibration at 25° C. ([2]; Diethyl ether): Form C
Solubility at 25° C. ([2]; Diethyl ether): 3 µg/mL
XRPD after heat/cool cycle ([2]; Diethyl ether): Form C
XRPD after equilibration at 25° C. ([2]; Ethanol): Form C
Solubility at 25° C. ([2]; Ethanol): 880 µg/mL
XRPD after heat/cool cycle ([2]; Ethanol): Form C
XRPD after equilibration at 25° C. ([2]; Ethyl acetate): Form C
Solubility at 25° C. ([2]; Ethyl acetate): 1.8 µg/mL
XRPD after heat/cool cycle ([2]; Ethyl acetate): Form C
XRPD after equilibration at 25° C. ([2]; Heptane): Form A
Solubility at 25° C. ([2]; Heptane): 2.2 µg/mL
XRPD after heat/cool cycle ([2]; Heptane): Form A
XRPD after equilibration at 25° C. ([2]; Isopropyl acetate): Form C
Solubility at 25° C. ([2]; Isopropyl acetate): 2.8 µg/mL
XRPD after heat/cool cycle ([2]; Isopropyl acetate): Form C
XRPD after equilibration at 25° C. ([2]; MIBK): Form C
Solubility at 25° C. ([2]; MIBK): 1.8 µg/mL
XRPD after heat/cool cycle ([2]; MIBK): Form C
XRPD after equilibration at 25° C. ([2]; Methanol): Form B
Solubility at 25° C. ([2]; Methanol): 4480 µg/mL
XRPD after equilibration at 25° C. ([2]; TBME): Form A
Solubility at 25° C. ([2]; TBME): 2.3 µg/mL
XRPD after equilibration at 25° C. ([2]; Tetrahydrofuran): Form C
Solubility at 25° C. ([2]; Tetrahydrofuran): 12.5 µg/mL
XRPD after heat/cool cycle ([2]; Tetrahydrofuran): Form C
XRPD after equilibration at 25° C. ([2]; Toluene): Form A
Solubility at 25° C. ([2]; Toluene): 0.6 µg/mL
dissolution in organic solvents on heating cycle ([2]; any temperature (25° C.-75° C.), any solvent tested): Full or partial dissolution was not observed
XRPD after equilibration at 25° C. ([2]; n-Butyl acetate): Form C
Solubility at 25° C. ([2]; n-Butyl acetate): 0.7 µg/mL
XRPD after heat/cool cycle ([2]; n-Butyl acetate): Form C
